US8969332B2, “Aryloxy dihalopropenyl ether compounds and uses thereof” (Sinochem Corporation, priority 2011, dated 2015)

Tests used:
[1] = system: cabbage butterfly (Pierisrapae Linne); assay: Field trial against cabbage butterfly; assay type: in vivo
Protocol: (§1) Calculation Method: Decrease rate of insects (%)=(the number of insects before application−the number of insects after application) the number of insects before application×100 Control efficacy (%)=(decrease rate of insects in treated area decrease rate of insects in blank comparative area)/(100−decrease rate of insects in blank comparative area)×100
The trial was carried out in a farmer's vegetable field in Xiangcheng District Suzhou City. The variety of the cabbage is Xinxia 50. The dosage of the compound 1 are 75, 105, 150 g a.i./hm^2 and the comparative agent pyridalyl is 105 g a.i./hm^2. The agent was applied on 26 May 2011. The application tool is Singaporean Linong HD-400 type backpack spray. Evenly spraying to whole cabbage which is at vegetative growth phase was conducted, Cabbage butterfly is at a peak time of 1-3 instars of larvae. The plot area is 15 m^2, 4 replicates and randomized block arrangement were set. The amount of spray liquid is 750 L/hm^2. It was from sunny to cloudy with the highest temperature of 22.6° C., and the lowest of 17.8° C. on the day of the application of the spray. Chosen 10 plants from each plot and scored the larvae at different instars at fixing time. The base number was investigated before treatment. The number of living larvae was counted after 1 day, 4 days, 7 days and 12 days respectively after application and control efficacy was calculated.
Calculation method: the same as Example 13.

[2] = system: housefly; assay: Insecticidal activity against housefly (diet incorporation test); assay type: in vivo; details: Musca domestica, 72 h, 3rd instar larvae, read-out: Mortality of housefly (%)
Protocol: Diet Incorporation Tests: the test compound was dissolved with 90% acetone to obtain the mother liquor after weigh accurately with an electronic balance. The required concentration solution was got by diluting to the mother liquor with a certain concentration milk powder solution according to the designed doses in the experiment. Then, the diluted concentration solution was evenly put into the petri dishes with diameter of 6 cm inside which filter paper was placed by using a transferring-liquid gun ([…], solution each petri dish). Finally the 3rd instars of larvae were put into petri dishes with 10 each petri dish, and 3 replicates were set for each treatment. Then the insects were maintained in observation room (25° C., 60˜70% R.H.). Scores were conducted and mortalities were calculated after 72 h.

[3] = system: diamond back moth; assay: Insecticidal activity against diamond back moth in greenhouse (airbrush spraying of cabbage leaf discs); assay type: in vivo; details: Plutella xylostella, foliar, 72 h, parallel determination, read-out: Mortality of diamond back moth (%)
Protocol: (§2) Compounds were dissolved in mixed solvent (acetone:methanol=1:1), and diluted to required concentration with water containing 0.1% of tweed 80.
The method of spraying by airbrush: The cabbage leaves were made into plates of 2 cm diameter by use of punch. A test solution (0.5 ml) was sprayed by airbrush at the pressure of 0.7 kg/cm^2 to both sides of every plate. 10 Second instar larvae were put into the petri-dishes after the leaf disc air-dried and 3 replicates were set for each treatment. Then the insects were maintained in observation room (25° C., 60˜70% R.H.), Scores were conducted and mortalities were calculated after 72 h.

[4] = system: beet armyworm; assay: Field trial against beet armyworm on cabbage; assay type: in vivo, Laphygma exigua
Protocol: The trial was carried out in rain shelter area of experimental field of Wuhan vegetable research institute, the test crop is cabbage (variety: Jingfeng NO. 1). The dosage of the invention compound 1 (Example 11, 10% EC, same as below) are 75, 105, 150 g a.i./hm^2. and the comparative agent pyridalyl (10% EC, commercially available, same as below) is 105 g a.i./hm^2. The agent was applied on 9 Oct. 2011. The application tool is Linong 16HD-400 type backpack spray. Evenly spraying to whole cabbage which is in rosette stage was conducted. Beet armyworm is mainly larvae. The plot area is 25 m^2 and 4 replicates and randomized block arrangement were set. The amount of spray liquid is 750 L/hm^2. It was sunny and there was no wind, with the highest temperature of 28° C. and the lowest of 15° C. on the day of the application. Chosen 10 plants from each plot and scored the larvae at different instars at fixing time. The base number was investigated before treatment. The number of living larvae was counted after 1 day, 3 days, 7 days and 14 days respectively after application and control efficacy was calculated.
as §1

[5] = system: armyworm; assay: Insecticidal activity against armyworm in greenhouse (airbrush spraying of corn leaf discs); assay type: in vivo; details: Mythimna separata, foliar, 72 h, parallel determination
Protocol: as §2
The method of spraying by airbrush: The corn leaves were made into plates of 2 cm diameter by use of punch. A test solution (0.5 ml) was sprayed by airbrush at the pressure of 0.7 kg/cm^2 to both sides of every plate. 10 Second instar larvae were put into the Petri-dishes after the leaf disc air-dried and 3 replicates were set thr each treatment. Then the insects were maintained in observation room (25° C., 60˜70% R.H.). Scores were conducted and mortalities were calculated after 72 h.

[6] = system: diamond back moth; assay: Field trial against diamond back moth on cabbage; assay type: in vivo, Plutella xylostella
Protocol: as §1
The trial was carried out in the test filed of Shenyang Research Institute of Chemical industry Ltd. The trial crop is cabbage (Variety: Zhonggan NO 8.). The dosage of the compound 1 are 75, 105, 150 g a.i./hm^2 and comparative agent pyridalyl is 105 g a.i./hm^2. The agent was applied once on 13 Jun. 2011. The application tool is Shandongweishi WS-16P type backpack manual sprayer. Evenly spraying to whole cabbage which is in rosette stage was conducted. Diamond back moth is originated at the peak time. The plot area is 10 m^2, 3 replicates and randomized block arrangement were set. The amount of spray liquid is 750 L/hm^2. It was sunny with the highest temperature of 29° C., and the lowest of 17° C. on the day of the application of the spray. The methods of investigation and calculation are the same as Example 13.

[7] = 75 g a.i./hm^2, 10% EC, 1 day after treatment
[8] = 105 g a.i./hm^2, 10% EC, 1 day after treatment
[9] = 150 g a.i./hm^2, 10% EC, 1 day after treatment
[10] = 75 g a.i./hm^2, 10% EC, 3 days after treatment
[11] = 75 g a.i./hm^2, 10% EC, 7 days after treatment
[12] = 105 g a.i./hm^2, 10% EC, 3 days after treatment
[13] = 105 g a.i./hm^2, 10% EC, 7 days after treatment
[14] = 150 g a.i./hm^2, 10% EC, 3 days after treatment
[15] = 150 g a.i./hm^2, 10% EC, 7 days after treatment

SMILES: FC(F)(F)c1ccc(Oc2ccc(OCCCOc3c(Cl)cc(OCC=C(Cl)Cl)cc3Cl)cc2)nc1 [Compound 1]
- Control efficiency (%) [1, 7]: 40.4%
- Control efficiency (%) ([1]; 75 g a.i./hm^2, 10% EC, 4 day after treatment): 84.1%
- Control efficiency (%) ([1]; 75 g a.i./hm^2, 10% EC, 7 day after treatment): 86.7%
- Control efficiency (%) ([1]; 75 g a.i./hm^2, 10% EC, 12 days after treatment): 81.2%
- Control efficiency (%) [1, 8]: 44.0%
- Control efficiency (%) ([1]; 105 g a.i./hm^2, 10% EC, 4 day after treatment): 87.9%
- Control efficiency (%) ([1]; 105 g a.i./hm^2, 10% EC, 7 day after treatment): 92.6%
- Control efficiency (%) ([1]; 105 g a.i./hm^2, 10% EC, 12 days after treatment): 85.0%
- Control efficiency (%) [1, 9]: 45.2%
- Control efficiency (%) ([1]; 150 g a.i./hm^2, 10% EC, 4 day after treatment): 89.6%
- Control efficiency (%) ([1]; 150 g a.i./hm^2, 10% EC, 7 day after treatment): 92.8%
- Control efficiency (%) ([1]; 150 g a.i./hm^2, 10% EC, 12 days after treatment): 85.4%
- mortality at 10 µg/mL ([2]; 10 mg/L): 66.7%
- mortality at 20 µg/mL ([2]; 20 mg/L): 100%
- mortality at 6.25 µg/mL ([3]; 6.25 mg/L): 100%
- mortality at 25 µg/mL ([3]; 25 mg/L): 100%
- mortality at 50 µg/mL ([3]; 50 mg/L): 100%
- Control efficiency (%) [4, 7]: 63.18%
- Control efficiency (%) [4, 10]: 86.14%
- Control efficiency (%) [4, 11]: 80.51%
- Control efficiency (%) ([4]; 75 g a.i./hm^2, 10% EC, 14 days after treatment): 73.51%
- Control efficiency (%) [4, 8]: 69.20%
- Control efficiency (%) [4, 12]: 92.30%
- Control efficiency (%) [4, 13]: 86.19%
- Control efficiency (%) ([4]; 105 g a.i./hm^2, 10% EC, 14 days after treatment): 83.69%
- Control efficiency (%) [4, 9]: 71.17%
- Control efficiency (%) [4, 14]: 94.09%
- Control efficiency (%) [4, 15]: 90.45%
- Control efficiency (%) ([4]; 150 g a.i./hm^2, 10% EC, 14 days after treatment): 88.42%
- mortality at 10 µg/mL ([5]; 10 mg/L): 100%
- mortality at 100 µg/mL ([5]; 100 mg/L): 100%
- Control efficacy (%) [6, 7]: 86.0%
- Control efficacy (%) [6, 10]: 98.7%
- Control efficacy (%) [6, 11]: 97.6%
- Control efficacy (%) [6, 8]: 93.4%
- Control efficacy (%) [6, 12]: 97.0%
- Control efficacy (%) [6, 13]: 97.8%
- Control efficacy (%) [6, 9]: 90.4%
- Control efficacy (%) [6, 14]: 97.9%
- Control efficacy (%) [6, 15]: 97.9%
